According to PubChem BioAssay (NCI):
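All cell lines were grown in 96-well plates and treated with compound for 48 hours. TGI denotes the concentration required for complete inhibition of growth.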

Experiments:
Test in all cases: DTP human tumour cell line panel, 48 h
[1] = tested on: 786-0 renal
[2] = tested on: A498 renal
[3] = tested on: A549 NSCLC
[4] = tested on: ACHN renal
[5] = tested on: BT-549 breast
[6] = tested on: CAKI-1 renal
[7] = tested on: CCRF-CEM leukemia
[8] = tested on: COLO 205 colon
[9] = tested on: DU-145 prostate
[10] = tested on: EKVX NSCLC
[11] = tested on: HCC-2998 colon
[12] = tested on: HCT-116 colon
[13] = tested on: HCT-15 colon
[14] = tested on: HL-60(TB) leukemia
[15] = tested on: HOP-62 NSCLC
[16] = tested on: HOP-92 NSCLC
[17] = tested on: HS 578T breast
[18] = tested on: HT29 colon
[19] = tested on: IGROV1 ovarian
[20] = tested on: K-562 leukemia
[21] = tested on: KM12 colon
[22] = tested on: LOX IMVI melanoma
[23] = tested on: M14 melanoma
[24] = tested on: MALME-3M melanoma
[25] = tested on: MCF7 breast
[26] = tested on: MDA-MB-231 breast
[27] = tested on: MDA-MB-435
[28] = tested on: MDA-N
[29] = tested on: MOLT-4 leukemia
[30] = tested on: NCI-H226 lung
[31] = tested on: NCI-H23 lung
[32] = tested on: NCI-H460 lung
[33] = tested on: NCI-H522 lung
[34] = tested on: NCI/ADR-RES ovarian
[35] = tested on: OVCAR-3 ovarian
[36] = tested on: OVCAR-4 ovarian
[37] = tested on: OVCAR-5 ovarian
[38] = tested on: OVCAR-8 ovarian
[39] = tested on: PC-3 prostate
[40] = tested on: RPMI-8226 leukemia
[41] = tested on: RXF 393 renal
[42] = tested on: SF-268 CNS
[43] = tested on: SF-295 CNS
[44] = tested on: SF-539 CNS
[45] = tested on: SK-MEL-2 melanoma
[46] = tested on: SK-MEL-28 melanoma
[47] = tested on: SK-MEL-5 melanoma
[48] = tested on: SK-OV-3 ovarian
[49] = tested on: SN12C renal
[50] = tested on: SNB-19 CNS
[51] = tested on: SNB-75 CNS
[52] = tested on: SR leukemia
[53] = tested on: SW-620 colon
[54] = tested on: T-47D breast
[55] = tested on: TK-10 renal
[56] = tested on: U251 CNS
[57] = tested on: UACC-257 melanoma
[58] = tested on: UACC-62 melanoma
[59] = tested on: UO-31 renal
[60] = tested on: DLD-1 colon
[61] = tested on: DMS 114 small cell lung
[62] = tested on: KM20L2 colon
[63] = tested on: LXFL 529 NSCLC
[64] = tested on: M19-MEL melanoma
[65] = tested on: SNB-78 CNS
[66] = tested on: XF 498 CNS
[67] = tested on: DMS 273 small cell lung
[68] = tested on: HOP-18 NSCLC

Measured: TGI

Cc1ccc2c(c1)C(=O)C(Cc1ccccc1C(=O)O)C2 (configuration not stated)
> 100 µM: [1] | [2] | [3] | [4] | [5] | [6] | [7] | [8] | [9] | [10] | [11] | [12] | [13] | [14] | [15] | [16] | [17] | [18] | [19] | [20] | [21] | [22] | [23] | [24] | [25] | [26] | [27] | [28] | [29] | [30] | [31] | [32] | [33] | [34] | [35] | [36] | [37] | [38] | [39] | [40] | [41] | [42] | [43] | [44] | [45] | [46] | [47] | [48] | [49] | [50] | [51] | [52] | [53] | [54] | [55] | [56] | [57] | [58] | [59]

Nc1ccc2c(c1)C(=O)N(O)C2=O
> 100 µM: [2] | [3] | [4] | [7] | [60] | [61] | [10] | [11] | [12] | [13] | [14] | [15] | [18] | [19] | [20] | [21] | [62] | [22] | [63] | [23] | [64] | [24] | [29] | [30] | [31] | [32] | [35] | [36] | [37] | [41] | [42] | [43] | [44] | [46] | [48] | [49] | [50] | [51] | [65] | [52] | [53] | [55] | [56] | [57] | [58] | [59] | [66]

O=C(CCN1CC2CCC(CC2)C1)c1cccs1
23.9 µM: [59]
24.6 µM: [52]
18.7 µM: [29]
44 µM: [20]
32.5 µM: [46]
58 µM: [35]
71.9 µM: [17]
45.5 µM: [15]
23.3 µM: [55]
36.7 µM: [31]
24.1 µM: [54]
29.4 µM: [25]
31.9 µM: [58]
12.2 µM: [53]
33.6 µM: [4] | [45]
42.6 µM: [10]
34.5 µM: [6]
12.6 µM: [16]
20.9 µM: [1]
37.5 µM: [32]
39.3 µM: [24]
44.3 µM: [14] | [42]
33.1 µM: [37]
42 µM: [12]
62.1 µM: [34]
> 100 µM: [2] | [30] | [43] | [47] | [50]
31.8 µM: [23]
27.7 µM: [22]
30.4 µM: [57]
61.6 µM: [18]
39 µM: [5]
33.5 µM: [56]
44.1 µM: [13]
> 53.4 µM: [48]
34.4 µM: [26]
42.4 µM: [38]
33.8 µM: [9]
36.3 µM: [33]
> 57.6 µM: [3]
40.7 µM: [21]
31.1 µM: [39]
42.3 µM: [27]
29 µM: [11]
35 µM: [51]
34.7 µM: [8] | [28]
39.2 µM: [44]
12.4 µM: [40]
25.8 µM: [19]
4.81 µM: [7]
> 74.6 µM: [36]
37.6 µM: [49]
37 µM: [41]

CCc1ccccc1NC(=O)CCc1n[nH]c(=S)o1
36.8 µM: [13]
> 100 µM: [1] | [2] | [3] | [4] | [6] | [7] | [8] | [60] | [61] | [67] | [10] | [11] | [14] | [68] | [15] | [16] | [18] | [19] | [20] | [21] | [62] | [63] | [23] | [64] | [24] | [29] | [30] | [31] | [32] | [35] | [36] | [37] | [38] | [40] | [42] | [43] | [44] | [46] | [47] | [48] | [49] | [50] | [51] | [65] | [55] | [56] | [57] | [58] | [59]
44.1 µM: [53]
42.5 µM: [12]
